Patent US8999940B2 (Ipsen Pharma S.A.S., priority 2008, dated 2015)
pKi: −log10 of the molar value. Where a SMILES comes first, the peptide text is derived from it. Where no end group is shown, it is not given here. [ ]: non-standard residue; d: D form. The star is where a group is joined. Tyr(3-OMe) = COc1cc(C[C@H](N)C(=O)O)ccc1O; Phe(4-Me) = Cc1ccc(C[C@H](N)C(=O)O)cc1; Desaminotyrosyl = O=C(CCc1ccc(O)cc1)*; Nle = CCCC[C@H](N)C(=O)O; Ac5c = NC1(C(=O)O)CCCC1; Aib = CC(C)(N)C(=O)O

Legend:
[1] = Human plasma half-life assay; assay type: in vitro ADME; conditions: 37° C., LC-MS, read-out: Human Plasma T½ (converted)
Description: (§1) B. Human and Rat Plasma Half-Life Assay
(§2) 50 μl was removed at various times, like at 0, 1, 2, 3, 4, 8, 24, 32, 48, 56, 72 hours, mixed with 5 μl formic acid and 150 μL acetonitrile in a microcentrifuge tube, vertexed, and centrifuged for 10 minutes at 10 K rpm. The supernatant was transferred to an injection vial and analyzed by LC-MS. The LC-MS system consisted of an API4000 mass spectrometer with an ESI probe. Positive ion mode and full scan detection were used. HPLC separation was carried out on a Luna 3μ. C8 (2), 2×30 mm column with a gradient from 90% A to 90% B in 10 minutes at a flow rate of 0.3 ml/min. Buffer A was 1% formic acid in water and buffer B was 1% formic acid acetonitrile.

[2] = Rat plasma half-life assay; assay type: in vitro ADME; conditions: 37° C., LC-MS, read-out: Rat Plasma T½ (converted)
Description: as §1, §2

[3] = target: T1, human recombinant GIP receptor (Homo sapiens, UniProt P48546); test: In vitro hGIP receptor binding assay
T1 construct: expressed in transfected cells; host or cells: CHO-K1 clonal cells (membrane preparation)
T1 sequence (P48546 22-466): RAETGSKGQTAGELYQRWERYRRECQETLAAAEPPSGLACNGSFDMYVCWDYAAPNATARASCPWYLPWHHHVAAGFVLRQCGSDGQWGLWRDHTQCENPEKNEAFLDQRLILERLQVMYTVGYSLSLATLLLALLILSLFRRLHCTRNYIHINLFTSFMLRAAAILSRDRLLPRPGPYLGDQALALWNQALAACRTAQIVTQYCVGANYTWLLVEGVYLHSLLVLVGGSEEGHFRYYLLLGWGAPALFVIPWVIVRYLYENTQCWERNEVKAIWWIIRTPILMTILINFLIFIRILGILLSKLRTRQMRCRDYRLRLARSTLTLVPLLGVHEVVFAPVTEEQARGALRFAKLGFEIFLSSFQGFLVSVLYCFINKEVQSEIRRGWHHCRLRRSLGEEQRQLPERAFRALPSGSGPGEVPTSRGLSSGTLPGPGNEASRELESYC
Description: A. In Vitro hGIP Receptor Binding Assay […] The incubations were terminated by rapid filtration through GF/C filters (pre-soaked in 0.5% polyethylenimine) using a Brandel filtration manifold. Each tube and filter were then washed three times with 5-ml aliquots of ice-cold buffer.

Row | Compound | half-life [1] [h] | half-life [2] [h] | pKi [3] | half-life at 0.1 mg/ml [1] [h] | half-life at 0.1 mg/ml [2] [h]
1 | [Tyr(3-OMe)][Aib]EGTFISDY[Ac5c]IA[Ac5c]DKIHQQDFVNWLLAQKGKKNDWKHNI[Ac5c]QH-OH [Example 75, (3MeO-Tyr^1, Aib^2, A5c^11, 14, His^43)hGIP(1-43)-OH] | > 60 | 18.6 | – | – | –
2 | [Phe(4-Me)][Aib]EGTFISDY[Ac5c]IAMDKIHQQDFVNWLLAQKGKKNDWKHNITQH-OH [Example 78, (4Me-Phe^1, Aib^2, A5c^11, His^43)hGIP(1-43)-OH] | – | – | 8.04 | 14.9 | > 52
3 | CC[C@H](C)[C@H](NC(=O)[C@H](CCCCN)NC(=O)[C@H](CC(=O)O)NC(=O)[C@H](CCSC)NC(=O)[C@H](C)NC(=O)[C@@H](NC(=O)C1(NC(=O)[C@H](Cc2ccc(O)cc2)NC(=O)[C@H](CC(=O)O)NC(=O)[C@H](CO)NC(=O)[C@@H](NC(=O)[C@H](Cc2ccccc2)NC(=O)[C@@H](NC(=O)CNC(=O)[C@H](CCC(=O)O)NC(=O)C(C)(C)NC(=O)[C@@H](N)Cc2c(C)cc(O)cc2C)[C@@H](C)O)[C@@H](C)CC)CCCC1)[C@@H](C)CC)C(=O)N[C@@H](Cc1c[nH]cn1)C(=O)N[C@@H](CCC(N)=O)C(=O)N[C@@H](CCC(N)=O)C(=O)N[C@@H](CC(=O)O)C(=O)N[C@@H](Cc1ccccc1)C(=O)N[C@H](C(=O)N[C@@H](CC(N)=O)C(=O)N[C@@H](Cc1c[nH]c2ccccc12)C(=O)N[C@@H](CC(C)C)C(=O)N[C@@H](CC(C)C)C(=O)N[C@@H](C)C(=O)N[C@@H](CCC(N)=O)C(=O)N[C@@H](CCCCN)C(=O)NCC(=O)N[C@@H](CCCCN)C(=O)N[C@@H](CCCCN)C(=O)N[C@@H](CC(N)=O)C(=O)N[C@@H](CC(=O)O)C(=O)N[C@@H](Cc1c[nH]c2ccccc12)C(=O)N[C@@H](CCCCN)C(=O)N[C@@H](Cc1c[nH]cn1)C(=O)N[C@@H](CC(N)=O)C(=O)N[C@H](C(=O)NC1(C(=O)N[C@@H](CCC(N)=O)C(=O)O)CCCC1)[C@@H](C)CC)C(C)C [Example 30, (2,6Me-Tyr^1, Aib^2, A5c^11, 41)hGIP(1-42)-OH] | – | – | 8.99 | 27.6 | 7.2
4 | CC[C@H](C)[C@H](NC(=O)[C@H](CCCCN)NC(=O)[C@H](CC(=O)O)NC(=O)[C@H](CCSC)NC(=O)[C@H](C)NC(=O)[C@@H](NC(=O)C1(NC(=O)[C@H](Cc2ccc(O)cc2)NC(=O)[C@H](CC(=O)O)NC(=O)[C@H](CO)NC(=O)[C@@H](NC(=O)[C@H](Cc2ccccc2)NC(=O)[C@@H](NC(=O)CNC(=O)[C@H](CCC(=O)O)NC(=O)C(C)(C)NC(=O)[C@@H](N)Cc2ccc(OC)cc2)[C@@H](C)O)[C@@H](C)CC)CCCC1)[C@@H](C)CC)C(=O)N[C@@H](Cc1c[nH]cn1)C(=O)N[C@@H](CCC(N)=O)C(=O)N[C@@H](CCC(N)=O)C(=O)N[C@@H](CC(=O)O)C(=O)N[C@@H](Cc1ccccc1)C(=O)N[C@H](C(=O)N[C@@H](CC(N)=O)C(=O)N[C@@H](Cc1c[nH]c2ccccc12)C(=O)N[C@@H](CC(C)C)C(=O)N[C@@H](CC(C)C)C(=O)N[C@@H](C)C(=O)N[C@@H](CCC(N)=O)C(=O)N[C@@H](CCCCN)C(=O)NCC(=O)N[C@@H](CCCCN)C(=O)N[C@@H](CCCCN)C(=O)N[C@@H](CC(N)=O)C(=O)N[C@@H](CC(=O)O)C(=O)N[C@@H](Cc1c[nH]c2ccccc12)C(=O)N[C@@H](CCCCN)C(=O)N[C@@H](Cc1c[nH]cn1)C(=O)N[C@@H](CC(N)=O)C(=O)N[C@H](C(=O)NC1(C(=O)N[C@@H](CCC(N)=O)C(=O)O)CCCC1)[C@@H](C)CC)C(C)C [Example 31, [Tyr(Me)^1, Aib^2, A5c^11, 41]hGIP(1-42)-OH] | – | – | 8.35 | 34.8 | 9.7
5 | CCCC[C@H](NC(=O)[C@H](C)NC(=O)[C@@H](NC(=O)C1(NC(=O)[C@H](Cc2ccc(O)cc2)NC(=O)[C@H](CC(=O)O)NC(=O)[C@H](CO)NC(=O)[C@@H](NC(=O)[C@H](Cc2ccccc2)NC(=O)[C@@H](NC(=O)CNC(=O)[C@H](CCC(=O)O)NC(=O)C(C)(C)NC(=O)[C@@H](N)Cc2cc(Br)c(O)c(Br)c2)[C@@H](C)O)[C@@H](C)CC)CCCC1)[C@@H](C)CC)C(=O)N[C@@H](CC(=O)O)C(=O)N[C@@H](CCCCN)C(=O)N[C@H](C(=O)N[C@@H](Cc1c[nH]cn1)C(=O)N[C@@H](CCC(N)=O)C(=O)N[C@@H](CCC(N)=O)C(=O)N[C@@H](CC(=O)O)C(=O)N[C@@H](Cc1ccccc1)C(=O)N[C@H](C(=O)N[C@@H](CC(N)=O)C(=O)N[C@@H](Cc1c[nH]c2ccccc12)C(=O)N[C@@H](CC(C)C)C(=O)N[C@@H](CC(C)C)C(=O)N[C@@H](C)C(=O)N[C@@H](CCC(N)=O)C(=O)N[C@@H](CCCCN)C(=O)NCC(=O)N[C@@H](CCCCN)C(=O)N[C@@H](CCCCN)C(=O)N[C@@H](CC(N)=O)C(=O)N[C@@H](CC(=O)O)C(=O)N[C@@H](Cc1c[nH]c2ccccc12)C(=O)N[C@@H](CCCCN)C(=O)N[C@@H](Cc1c[nH]cn1)C(=O)N[C@@H](CC(N)=O)C(=O)N[C@H](C(=O)N[C@H](C(=O)N[C@@H](CCC(N)=O)C(=O)O)[C@@H](C)O)[C@@H](C)CC)C(C)C)[C@@H](C)CC [Example 13, (3,5Br-Tyr^1, Aib^2, A5c^11, Nle^14)hGIP(1-42)-OH] | – | – | 7.66 | 50.6 | 13.1
6 | CCCC[C@H](NC(=O)[C@H](C)NC(=O)[C@@H](NC(=O)C1(NC(=O)[C@H](Cc2ccc(O)cc2)NC(=O)[C@H](CC(=O)O)NC(=O)[C@H](CO)NC(=O)[C@@H](NC(=O)[C@H](Cc2ccccc2)NC(=O)[C@@H](NC(=O)CNC(=O)[C@H](CCC(=O)O)NC(=O)C(C)(C)NC(=O)[C@@H](N)Cc2ccc(O)c(I)c2)[C@@H](C)O)[C@@H](C)CC)CCCC1)[C@@H](C)CC)C(=O)N[C@@H](CC(=O)O)C(=O)N[C@@H](CCCCN)C(=O)N[C@H](C(=O)N[C@@H](Cc1c[nH]cn1)C(=O)N[C@@H](CCC(N)=O)C(=O)N[C@@H](CCC(N)=O)C(=O)N[C@@H](CC(=O)O)C(=O)N[C@@H](Cc1ccccc1)C(=O)N[C@H](C(=O)N[C@@H](CC(N)=O)C(=O)N[C@@H](Cc1c[nH]c2ccccc12)C(=O)N[C@@H](CC(C)C)C(=O)N[C@@H](CC(C)C)C(=O)N[C@@H](C)C(=O)N[C@@H](CCC(N)=O)C(=O)N[C@@H](CCCCN)C(=O)NCC(=O)N[C@@H](CCCCN)C(=O)N[C@@H](CCCCN)C(=O)N[C@@H](CC(N)=O)C(=O)N[C@@H](CC(=O)O)C(=O)N[C@@H](Cc1c[nH]c2ccccc12)C(=O)N[C@@H](CCCCN)C(=O)N[C@@H](Cc1c[nH]cn1)C(=O)N[C@@H](CC(N)=O)C(=O)N[C@H](C(=O)N[C@H](C(=O)N[C@@H](CCC(N)=O)C(=O)O)[C@@H](C)O)[C@@H](C)CC)C(C)C)[C@@H](C)CC [Example 16, (3I-Tyr^1, Aib^2, A5c^11, Nle^14)hGIP(1-42)-OH] | – | – | 8.30 | 52.1 | 18.5
7 | CCCC[C@H](NC(=O)[C@H](C)NC(=O)[C@@H](NC(=O)[C@H](CO)NC(=O)[C@H](Cc1ccc(O)cc1)NC(=O)[C@H](CC(=O)O)NC(=O)[C@H](CO)NC(=O)[C@@H](NC(=O)[C@H](Cc1ccccc1)NC(=O)[C@@H](NC(=O)CNC(=O)[C@@H]1CCCN1C(=O)C(C)(C)NC(=O)CCc1ccc(O)cc1)[C@@H](C)O)[C@@H](C)CC)[C@@H](C)CC)C(=O)N[C@@H](CC(=O)O)C(=O)N[C@@H](CCCCN)C(=O)N[C@H](C(=O)N[C@@H](Cc1c[nH]cn1)C(=O)N[C@@H](CCC(N)=O)C(=O)N[C@@H](CCC(N)=O)C(=O)N[C@@H](CC(=O)O)C(=O)N[C@@H](Cc1ccccc1)C(=O)N[C@H](C(=O)N[C@@H](CC(N)=O)C(=O)N[C@@H](Cc1c[nH]c2ccccc12)C(=O)N[C@@H](CC(C)C)C(=O)N[C@@H](CC(C)C)C(=O)N[C@@H](C)C(=O)N[C@@H](CCC(N)=O)C(=O)N[C@@H](CCCCN)C(N)=O)C(C)C)[C@@H](C)CC [Example 9, (4Hppa^1, Aib^2, hPro^3, Nle^14)hGIP(1-30)-NH2] (Desaminotyrosyl-[Aib]PGTFISDYSIA[Nle]DKIHQQDFVNWLLAQK-NH2) | 26.5 | 14 | – | – | –
